Literature values in patent EP4660212A1, “POLYVINYL ALCOHOL-BASED POLYMER” (Japan Vam & Poval Co., Ltd., priority 2023, dated 2024).

Details: water at 20°C

Compound	solubility in 100 mL (100 g) of water
CCOc1ccccc1C(N)=O [ethenzamide]	about 100 mg/100 g water
c1ccc2cc3ccccc3cc2c1 [anthracene]	about 0.13 mg/100 g water
